Source: patent publication US20250154110A1, “CLAUDIN INHIBITORS AND METHODS OF USE THEREOF” (The University of Chicago, priority 2021, published 2025)

Key:
[1] = tested on: colonoids derived from a patient with inflammatory bowel disease; assay: Organoid shrinking assay in colonoids after Na+ to NMDG+ buffer exchange; type: cell-based, human; conditions: FIG. 25
Excerpt: For this study, organoids derived from human colon biopsies (colonoids) were first equilibrated in steady-state with Na^+ as the predominant extracellular cation. Extraluminal Na^+ was then replaced with N-methyl-D-glucamine (NMDG^+) by buffer exchange. The buffer exchange generates a large concentration gradient for Na^+ to diffuse out of the organoid lumen. […] See, for example, FIG. 24. As a result, the net Na^+ flux across tight junctions creates an osmotic gradient for water to exit the organoid through tight junctions, causing organoids to shrink. The size of organoids is measured by time-lapse microscopy, and the rate and extent of shrinkage can be determined as an assay of claudin permeability. Reduced rate and extent of shrinkage indicates reduced permeability.
Colonoids derived from a patient with inflammatory bowel disease were first equilibrated in steady-state with Na^+ containing media. Equilibrated colonoids were treated with NSC 73446 or a vehicle control and the extraluminal Na^+ was then replaced with N-methyl-D-glucamine (NMDG^+) by buffer exchange. As is apparent from the results set forth in FIG. 25, water transport across human epithelium was modulated by NSC 73446.

mouse mucosa = assay: TER of mouse duodenum mucosa mounted in Ussing chambers; conditions: FIG. 22, 100 μM added bilaterally, versus vehicle, P<0.01
Excerpt: The same techniques to measure TER and ion selectivity also apply to intact mucosa isolated from mice. The only significant difference is the tissue was first stripped of its muscularis propria and mounted in chambers, known as Ussing chambers. The same techniques were used to measure ion selectivity. Identical solutions were used, but also bubbled with 100% oxygen.
For TER measurements, duodenum segments were stripped of muscularis propria and mounted in Ussing chambers, and equilibrated in oxygenated HBSS for 15 min at 37° C. Vehicle control solution (DMSO) or the same solution containing 100 μM NSC 67736 were then added bilaterally. TER was recorded using current clamp pulses from 0 to 10 μA and Vrev was recorded by clamping current to 0. Electrode bridges were made 3% agarose KCl.

claudin-15 = molecular target: T1, claudin-15 (Homo sapiens, UniProt P56746); assay: TER across MDCK I monolayers induced to express claudin-15; type: cell-based; conditions: FIG. 20; concentrations lower than 100 μM; resistance normalized to vehicle
T1 construct: expressed in transfected cells; host or cells: Madin-Darby Canine Kidney (MDCK) I cells, doxycycline-induced expression
T1 sequence (P56746 1-228): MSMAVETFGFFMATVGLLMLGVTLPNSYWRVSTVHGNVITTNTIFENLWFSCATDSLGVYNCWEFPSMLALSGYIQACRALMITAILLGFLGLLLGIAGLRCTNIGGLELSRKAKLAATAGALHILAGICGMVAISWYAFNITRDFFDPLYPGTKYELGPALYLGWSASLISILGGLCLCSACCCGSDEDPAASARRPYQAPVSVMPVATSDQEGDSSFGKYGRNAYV
Excerpt: Electrical measures are used to assess the flow of ions through the claudin channels. The most commonly used measurement in the tight junction field is transepithelial electrical resistance (TER). These assays can be performed using epithelial cells grown on permeable supports (in vitro) or using intact tissue from the GI tract mounted across apertures (ex vivo).
Two different Madin-Darby Canine Kidney (MDCK) I cell lines were used, which respectively express either claudin-2 or -15 when grown in the presence of doxycycline. These cells are useful in assessing the specificity of molecule effects on claudin-2 versus claudin-15. Caco-2 BBe epithelial cells, which normally express claudin-2 and some claudin-15, were also used to better understand the utility of these molecules in blocking claudins in the gastrointestinal (GI) tract. Caco-2 BBe and MDCK cells were grown on 0.33 cm^2 polycarbonate semi-permeable membranes with 0.4 μm pores (Corning Life Sciences, Corning, NY) and used 4 days (MDCK) or 3 weeks (Caco-2 BBe) after plating. […]
Molecules were solubilized in vehicle (dimethylsulfoxide (DMSO)) and applied to both sides of the epithelial monolayer after first measuring TER at t=0 (FIGS. 17 and 18). […] Readings were performed for at least 3 hours after application to rule out epithelial cell injury, which would reduce TER. […]

## CCCNC(=O)c1cc(NC(=O)Nc2ccc(C3=NCCCN3)cc2)cc(NC(=O)Nc2ccc(C3=NCCCN3)cc2)c1.Cl [NSC 73446]
[1]; inferred from colonoid size change
  water transport across human epithelium: reduces water transport out of the lumen of the colonoid
[1]; time-lapse microscopy, relative to vehicle control
  colonoid size change (rate and extent of shrinkage): minimizes the rate and extent of colonoid size decrease

## Cl.Cl.O=C(Nc1ccc(C(=O)Nc2ccc(C3=NCCCN3)cc2)cc1)Nc1ccc(C2=NCCCN2)cc1 [NSC 67736]
Mouse mucosa
  change in TER (barrier function) in mouse mucosa: increases barrier function

## O=C(Nc1cccc(C(=O)Nc2cc(C3=NCCN3)cc(C3=NCCN3)c2)c1)Nc1cccc(C(=O)Nc2cc(C3=NCCN3)cc(C3=NCCN3)c2)c1 [NSC 53299]
claudin-15
  dose response of TER: effective at low micromolar concentrations
